A short description of series [1]: Absorbance and fluorescence maximum wavelengths and quantum yields of the CyNA library. Type of series: physicochemical. To be noted: for λabs, absorbance maximum wavelength / λem, fluorescence maximum wavelength: CyNA library; for φ, quantum yield: in DMSO, Cardiogreen as standard. Here is the method:
Since the k values of the different CyNA compounds indicated some dependency on the chemical structure of the amine, the CyNA scaffold was derivatized with a broad range of primary amines (FIGS. 4A-4C). The fluorescence properties of the 80-member CyNA library were measured. The absorption maximum wavelengths ranged from 802 nm to 806 nm, emission maximum wavelengths ranged from 817 nm to 823 nm, and the average quantum yield was approximately 0.10 (Table 2).
All the chemicals (building block amines plus others) and solvents were purchased from Sigma Aldrich, Alfa Aesar, Fluka, MERCK or Acros, and used without further purification. ^1H-NMR and ^13C-NMR spectra were recorded on Bruker Avance 300 NMR and 500 NMR spectrometers, and chemical shifts are expressed in parts per million (ppm). High-resolution mass spectrometry (HRMS) data was recorded on a Micromass VG 7035. Photobleaching experiments were performed using a UVP Blak-Ray® B-100AP high intensity UV lamp (100 W, 365 nm) Spectroscopic and quantum yield data were measured on a SpectraMax M2 spectrophotometer (Molecular Devices), and the data analysis was performed using GraphPrism 5.0. Photobleaching measurements were performed using an Eclipse Ti-U Nikon microscope (filter cube: 750/800) attached to Ti:sappire oscillator that operated in continuous wave mode, and the data was processed using the software NIS-Elements 3.10. In vivo images were taken in an IVIS Spectrum imaging system (Caliper Life Sciences).

Series [2] is described as follows: Primary screening of photostability of the CyNA library (time-course fluorescence, 8 h). It counts as physicochemical. Details: F/Fo, fluorescent intensity at 8 hours vs 0 hours: unit: %. To be noted: 10 μM in HEPES 100 mM pH 7.4, 2% DMSO. The protocol:
As a primary evaluation of photo stability, the decrease in fluorescence intensity of the 80 CyNA compounds was measured (see Table 2). The average decrease in fluorescence intensity after 8 hours of irradiation by a xenon lamp was approximately 18%. A subset of the most photostable compounds (i.e., F/Fo reported in Table 2 was greater than or equal to 95) was examined under stronger irradiation in various buffers.
10-μM CyNA solutions in 100 mM HEPES buffer (pH 7.4) containing 2% DMSO were placed in a 96-well black plate, and fluorescence intensity measurements were recorded every 10 minutes for a total period of 8 hours (excitation-emission: 790-820 nm). A subset of fourteen compounds selected according to their F8h/Fo quotients, quantum yields and maximum relative fluorescence units (RFU) values was further evaluated in a secondary screening

Turning to `CCCN1/C(=C/C=C2\CCCC(/C=C/C3=[N+](CCC)c4ccccc4C3(C)C)=C2N(Cc2ccco2)C(C)=O)C(C)(C)c2ccccc21` [CyNA-446], in series [1], the “λabs, absorbance maximum wavelength” value stood at 804 nm; the “λem, fluorescence maximum wavelength” value stood at 821 nm; the “φ, quantum yield” value was 0.08. For the same compound, in series [2], the “F/Fo, fluorescent intensity at 8 hours vs 0 hours” value (from here on “F/Fo … vs 0 hours”) was 85 and the “max RFU, maximum relative fluorescence units” value worked out at 709.2.
The like results for `CCCN1/C(=C/C=C2\CCCC(/C=C/C3=[N+](CCC)c4ccccc4C3(C)C)=C2N(CCCOC(C)C)C(C)=O)C(C)(C)c2ccccc21` [CyNA-274] were, in that order, 805 nm, 820 nm, 0.12, 99 and 1209.5.
The like results for `CCCN1/C(=C/C=C2\CCCC(/C=C/C3=[N+](CCC)c4ccccc4C3(C)C)=C2N(Cc2cccc(F)c2F)C(C)=O)C(C)(C)c2ccccc21` [CyNA-351] were, in that order, 805 nm, 818 nm, 0.10, 52 and 555.4.
For the compound `CCCN1/C(=C/C=C2\CCCC(/C=C/C3=[N+](CCC)c4ccccc4C3(C)C)=C2N(CCc2ccccc2F)C(C)=O)C(C)(C)c2ccccc21` [CyNA-477], in series [1], the “λabs, absorbance maximum wavelength” value worked out at 805 nm; the “λem, fluorescence maximum wavelength” value was 819 nm; the “φ, quantum yield” value is 0.09. Besides, the “max RFU, maximum relative fluorescence units” value in series [2] is on record as 169.8.
Consider `CCCN1/C(=C/C=C2\CCCC(/C=C/C3=[N+](CCC)c4ccccc4C3(C)C)=C2N(Cc2ccccc2OC)C(C)=O)C(C)(C)c2ccccc21` [CyNA-388], for which, in series [1], the “λabs, absorbance maximum wavelength” value amounted to 803 nm; the “λem, fluorescence maximum wavelength” value is given as 819 nm; the “φ, quantum yield” value is on record as 0.14. In addition, in series [2], the “F/Fo … vs 0 hours” value stood at 97 and the “max RFU, maximum relative fluorescence units” value was 1398.5.
Turning to `CCCN(C(C)=O)C1=C(/C=C/C2=[N+](CCC)c3ccccc3C2(C)C)CCC/C1=C\C=C1\N(CCC)c2ccccc2C1(C)C` [CyNA-95], in series [1], the “λabs, absorbance maximum wavelength” value stood at 806 nm; the “λem, fluorescence maximum wavelength” value came to 818 nm; the “φ, quantum yield” value is listed as 0.09. For the same compound, in series [2], the “F/Fo … vs 0 hours” value amounted to 91 and the “max RFU, maximum relative fluorescence units” value was 1027.9.
As for `CCCN1/C(=C/C=C2\CCCC(/C=C/C3=[N+](CCC)c4ccccc4C3(C)C)=C2N(C(C)=O)C2CCCCCCC2)C(C)(C)c2ccccc21` [CyNA-219], in series [1], the “λabs, absorbance maximum wavelength” value is reported as 804 nm; the “λem, fluorescence maximum wavelength” value was 822 nm; the “φ, quantum yield” value was determined as 0.14. In addition, in series [2], the “F/Fo … vs 0 hours” value worked out at 65 and the “max RFU, maximum relative fluorescence units” value stood at 902.7.
The like results for `CCCN1/C(=C/C=C2\CCCC(/C=C/C3=[N+](CCC)c4ccccc4C3(C)C)=C2N(Cc2ccc(OC)c(OC)c2)C(C)=O)C(C)(C)c2ccccc21` [CyNA-319] were, in that order, 805 nm, 820 nm, 0.06, 67 and 578.6.
For the compound `CCCCC(CC)CN(C(C)=O)C1=C(/C=C/C2=[N+](CCC)c3ccccc3C2(C)C)CCC/C1=C\C=C1\N(CCC)c2ccccc2C1(C)C` (centres unmarked) [CyNA-230], in series [1], the “λabs, absorbance maximum wavelength” value came to 805 nm; the “λem, fluorescence maximum wavelength” value was determined as 822 nm; the “φ, quantum yield” value stood at 0.09. In series [2], the “F/Fo … vs 0 hours” value was determined as 80 and the “max RFU, maximum relative fluorescence units” value came out at 77.7.
The like results for `CCCN1/C(=C/C=C2\CCCC(/C=C/C3=[N+](CCC)c4ccccc4C3(C)C)=C2N(CCc2ccc([N+](=O)[O-])cc2)C(C)=O)C(C)(C)c2ccccc21` [CyNA-359] were, in that order, 805 nm, 821 nm, 0.11, 85 and 527.6.
As for `CCCN1/C(=C/C=C2\CCCC(/C=C/C3=[N+](CCC)c4ccccc4C3(C)C)=C2N(Cc2ccccc2Br)C(C)=O)C(C)(C)c2ccccc21` [CyNA-329], in series [1], the “λabs, absorbance maximum wavelength” value is recorded as 806 nm; the “λem, fluorescence maximum wavelength” value is listed as 821 nm; the “φ, quantum yield” value is 0.10. Moreover, in series [2], the “F/Fo … vs 0 hours” value is on record as 99 and the “max RFU, maximum relative fluorescence units” value was found to be 348.8.
As to `CCCCCCCCCCN(C(C)=O)C1=C(/C=C/C2=[N+](CCC)c3ccccc3C2(C)C)CCC/C1=C\C=C1\N(CCC)c2ccccc2C1(C)C` [CyNA-407], in series [1], the “λabs, absorbance maximum wavelength” value was found to be 805 nm; the “λem, fluorescence maximum wavelength” value is recorded as 820 nm; the “φ, quantum yield” value turned out to be 0.08. In addition, in series [2], the “max RFU, maximum relative fluorescence units” value was 22.5.
Take `CCCN1/C(=C/C=C2\CCCC(/C=C/C3=[N+](CCC)c4ccccc4C3(C)C)=C2N(Cc2ccc(F)cc2F)C(C)=O)C(C)(C)c2ccccc21` [CyNA-399]: in series [1], the “λabs, absorbance maximum wavelength” value is 804 nm; the “λem, fluorescence maximum wavelength” value is 819 nm; the “φ, quantum yield” value was found to be 0.10. Also, in series [2], the “F/Fo … vs 0 hours” value is on record as 95 and the “max RFU, maximum relative fluorescence units” value turned out to be 775.5.
Turning to `CCCN1/C(=C/C=C2\CCCC(/C=C/C3=[N+](CCC)c4ccccc4C3(C)C)=C2N(CCc2ccc(OC)cc2)C(C)=O)C(C)(C)c2ccccc21` [CyNA-395], in series [1], the “λabs, absorbance maximum wavelength” value is recorded as 804 nm; the “λem, fluorescence maximum wavelength” value was found to be 820 nm; the “φ, quantum yield” value stood at 0.07. Besides, in series [2], the “F/Fo … vs 0 hours” value was 95 and the “max RFU, maximum relative fluorescence units” value was 234.3.
The like results for `CCCN1/C(=C/C=C2\CCCC(/C=C/C3=[N+](CCC)c4ccccc4C3(C)C)=C2N(CCc2cccc(F)c2)C(C)=O)C(C)(C)c2ccccc21` [CyNA-405] were, in that order, 806 nm, 820 nm, 0.06, 83 and 138.5.
The like results for `CCCN1/C(=C/C=C2\CCCC(/C=C/C3=[N+](CCC)c4ccccc4C3(C)C)=C2N(CC2CCCCC2)C(C)=O)C(C)(C)c2ccccc21` [CyNA-382] were, in that order, 804 nm, 820 nm, 0.08, 85 and 294.6.
On to `CCCN1/C(=C/C=C2\CCCC(/C=C/C3=[N+](CCC)c4ccccc4C3(C)C)=C2N(Cc2cccc(C)c2)C(C)=O)C(C)(C)c2ccccc21` [CyNA-398], for which, in series [1], the “λabs, absorbance maximum wavelength” value came to 804 nm; the “λem, fluorescence maximum wavelength” value worked out at 819 nm; the “φ, quantum yield” value is recorded as 0.07. Besides, in series [2], the “F/Fo … vs 0 hours” value came out at 99 and the “max RFU, maximum relative fluorescence units” value came out at 540.2.

Source of the values: patent publication US9201014B2, “Development of photostable near-IR cyanine dyes for in vivo imaging” (National University of Singapore, priority 2010, dated 2015).
